Experimental data taken from PubChem BioAssay AID1259407 (Chemical Carcinogenesis Research Information System (CCRIS), 2018).
Calls of active or inactive are those of the source. The rule behind the calls is not given here.

System: CCRIS mutagenicity, Ames/micronucleus/aberration tests
Test: CCRIS mutagenicity studies
[1] = Test System: AMES SALMONELLA TYPHIMURIUM, Strain/Indicator: TA100, Metabolic Activation: NONE, Method: PREINCUBATION
[2] = Test System: AMES SALMONELLA TYPHIMURIUM, Strain/Indicator: TA100, Metabolic Activation: NONE, Method: STANDARD PLATE
[3] = Test System: AMES SALMONELLA TYPHIMURIUM, Strain/Indicator: TA100, Metabolic Activation: RAT, LIVER, S-9, AROCLOR 1254, Method: PREINCUBATION
[4] = Test System: AMES SALMONELLA TYPHIMURIUM, Strain/Indicator: TA100, Metabolic Activation: RAT, LIVER, S-9, AROCLOR 1254, Method: STANDARD PLATE
[5] = Test System: AMES SALMONELLA TYPHIMURIUM, Strain/Indicator: TA1535, Metabolic Activation: NONE, Method: PREINCUBATION
[6] = Test System: AMES SALMONELLA TYPHIMURIUM, Strain/Indicator: TA98, Metabolic Activation: NONE, Method: PREINCUBATION

Compound: COc1ccccc1/C=C/C=O
- mutagenic call (Test System: AMES SALMONELLA TYPHIMURIUM, Strain/Indicator: TA98, Metabolic Activation: HAMSTER, LIVER, S-9, AROCLOR 1254 (2.5-20%), Method: PREINCUBATION): inactive; negative
- mutagenic call (Test System: AMES SALMONELLA TYPHIMURIUM, Strain/Indicator: TA98, Metabolic Activation: HAMSTER, LIVER, S-9, AROCLOR 1254, Method: STANDARD PLATE): inactive; negative
- mutagenic call (Test System: AMES SALMONELLA TYPHIMURIUM, Strain/Indicator: TA98, Metabolic Activation: NONE, Method: STANDARD PLATE): inactive; negative
- mutagenic call (Test System: AMES SALMONELLA TYPHIMURIUM, Strain/Indicator: TA98, Metabolic Activation: RAT, LIVER, S-9, AROCLOR 1254, Method: STANDARD PLATE): inactive; negative
- mutagenic call (Test System: AMES SALMONELLA TYPHIMURIUM, Strain/Indicator: TA100, Metabolic Activation: HAMSTER, LIVER, S-9, AROCLOR 1254 (2.5-20%), Method: PREINCUBATION): inactive; negative
- mutagenic call (Test System: AMES SALMONELLA TYPHIMURIUM, Strain/Indicator: TA100, Metabolic Activation: HAMSTER, LIVER, S-9, AROCLOR 1254, Method: STANDARD PLATE): inactive; negative
- mutagenic call [1]: inactive; negative
- mutagenic call [2]: inactive; negative
- mutagenic call [3]: inactive; negative
- mutagenic call [4]: inactive; negative
- mutagenic call (Test System: AMES SALMONELLA TYPHIMURIUM, Strain/Indicator: TA102, Metabolic Activation: HAMSTER, LIVER, S-9, AROCLOR 1254, Method: PREINCUBATION): inactive; negative
- mutagenic call (Test System: AMES SALMONELLA TYPHIMURIUM, Strain/Indicator: TA102, Metabolic Activation: RAT, LIVER, S-9, AROCLOR 1254, Method: PREINCUBATION): inactive; negative
- mutagenic call (Test System: AMES SALMONELLA TYPHIMURIUM, Strain/Indicator: TA1535, Metabolic Activation: HAMSTER, LIVER, S-9, AROCLOR 1254, Method: STANDARD PLATE): inactive; negative
- mutagenic call [5]: inactive; negative
- mutagenic call (Test System: AMES SALMONELLA TYPHIMURIUM, Strain/Indicator: TA1535, Metabolic Activation: NONE, Method: STANDARD PLATE): inactive; negative
- mutagenic call (Test System: AMES SALMONELLA TYPHIMURIUM, Strain/Indicator: TA1535, Metabolic Activation: RAT, LIVER, S-9, AROCLOR 1254, Method: STANDARD PLATE): inactive; negative
- mutagenic call (Test System: AMES SALMONELLA TYPHIMURIUM, Strain/Indicator: TA1537, Metabolic Activation: HAMSTER, LIVER, S-9, AROCLOR 1254, Method: STANDARD PLATE): inactive; negative
- mutagenic call (Test System: AMES SALMONELLA TYPHIMURIUM, Strain/Indicator: TA1537, Metabolic Activation: NONE, Method: STANDARD PLATE): inactive; negative
- mutagenic call (Test System: AMES SALMONELLA TYPHIMURIUM, Strain/Indicator: TA1537, Metabolic Activation: RAT, LIVER, S-9, AROCLOR 1254, Method: STANDARD PLATE): inactive; negative
- mutagenic call (Test System: AMES SALMONELLA TYPHIMURIUM, Strain/Indicator: TA1538, Metabolic Activation: HAMSTER, LIVER, S-9, AROCLOR 1254, Method: STANDARD PLATE): inactive; negative
- mutagenic call (Test System: AMES SALMONELLA TYPHIMURIUM, Strain/Indicator: TA1538, Metabolic Activation: NONE, Method: STANDARD PLATE): inactive; negative
- mutagenic call (Test System: AMES SALMONELLA TYPHIMURIUM, Strain/Indicator: TA1538, Metabolic Activation: RAT, LIVER, S-9, AROCLOR 1254, Method: STANDARD PLATE): inactive; negative
- mutagenic call (Test System: Mouse lymphoma, Strain/Indicator: L5178Y (tk+/tk-), Metabolic Activation: None, Method: Suspension/plate): active; inconclusive (previous evaluation positive)
- mutagenic call (Test System: Mouse lymphoma, Strain/Indicator: L5178Y (tk+/tk-), Metabolic Activation: Rat, Liver, S-9, Aroclor 1254, Method: Suspension/plate): active; inconclusive (previous evaluation positive)

Compound: O=C(O)c1cc(Cl)ccc1Cl
- mutagenic call [6]: inactive; negative
- mutagenic call (Test System: AMES SALMONELLA TYPHIMURIUM, Strain/Indicator: TA98, Metabolic Activation: RAT LIVER S-9, PCB, Method: PREINCUBATION): inactive; negative
- mutagenic call [1]: inactive; negative
- mutagenic call (Test System: AMES SALMONELLA TYPHIMURIUM, Strain/Indicator: TA100, Metabolic Activation: RAT LIVER S-9, PCB, Method: PREINCUBATION): inactive; negative
- mutagenic call (Test System: AMES SALMONELLA TYPHIMURIUM, Strain/Indicator: TA104, Metabolic Activation: NONE, Method: PREINCUBATION): inactive; negative
- mutagenic call (Test System: AMES SALMONELLA TYPHIMURIUM, Strain/Indicator: TA104, Metabolic Activation: RAT LIVER S-9, PCB, Method: PREINCUBATION): inactive; negative
- mutagenic call (Test System: E.COLI, Strain/Indicator: WP2 UVRA, Metabolic Activation: NONE, Method: PREINCUBATION): inactive; negative
- mutagenic call (Test System: E.COLI, Strain/Indicator: WP2 UVRA, Metabolic Activation: RAT LIVER S-9, PCB, Method: PREINCUBATION): inactive; negative

Compound: c1ccc(COC[C@@H]2CO2)cc1
- mutagenic call [2]: active; positive

Compound: CN(C)C(=O)Nc1ccc(Cl)cc1
- mutagenic call (End Point: IN VITRO CHROMOSOMAL ABERRATIONS, Test System: CHINESE HAMSTER OVARY CELLS, Metabolic Activation: NONE): inactive; negative; precipitation occurred at all doses
- mutagenic call (End Point: IN VITRO CHROMOSOMAL ABERRATIONS, Test System: CHINESE HAMSTER OVARY CELLS, Metabolic Activation: RAT, LIVER, S-9, AROCLOR 1254): active; positive; precipitation occurred at all doses
- mutagenic call (Test System: AMES SALMONELLA TYPHIMURIUM, Strain/Indicator: TA98, Metabolic Activation: HAMSTER, LIVER, S-9, AROCLOR 1254, Method: PREINCUBATION): inactive; negative
- mutagenic call [6]: inactive; negative
- mutagenic call (Test System: AMES SALMONELLA TYPHIMURIUM, Strain/Indicator: TA98, Metabolic Activation: RAT, LIVER, S-9, AROCLOR 1254, Method: PREINCUBATION): inactive; negative
- mutagenic call (Test System: AMES SALMONELLA TYPHIMURIUM, Strain/Indicator: TA100, Metabolic Activation: HAMSTER, LIVER, S-9, AROCLOR 1254, Method: PREINCUBATION): inactive; negative
- mutagenic call [1]: inactive; negative
- mutagenic call [3]: inactive; negative
- mutagenic call (Test System: AMES SALMONELLA TYPHIMURIUM, Strain/Indicator: TA1535, Metabolic Activation: HAMSTER, LIVER, S-9, AROCLOR 1254, Method: PREINCUBATION): inactive; negative
- mutagenic call [5]: inactive; negative
- mutagenic call (Test System: AMES SALMONELLA TYPHIMURIUM, Strain/Indicator: TA1535, Metabolic Activation: RAT, LIVER, S-9, AROCLOR 1254, Method: PREINCUBATION): inactive; negative
- mutagenic call (Test System: AMES SALMONELLA TYPHIMURIUM, Strain/Indicator: TA1537, Metabolic Activation: HAMSTER, LIVER, S-9, AROCLOR 1254, Method: PREINCUBATION): inactive; negative
- mutagenic call (Test System: AMES SALMONELLA TYPHIMURIUM, Strain/Indicator: TA1537, Metabolic Activation: NONE, Method: PREINCUBATION): inactive; negative
- mutagenic call (Test System: AMES SALMONELLA TYPHIMURIUM, Strain/Indicator: TA1537, Metabolic Activation: RAT, LIVER, S-9, AROCLOR 1254, Method: PREINCUBATION): inactive; negative

Compound: NC(=O)CC1CO1 (configuration not stated)
- mutagenic call [1]: active; positive
- mutagenic call [2]: active; positive
- mutagenic call [3]: active; positive
- mutagenic call [4]: active; positive

Compound: COc1ccc2c(c1)c(CC(=O)OC(C)c1ccccc1)c(C)n2C(=O)c1ccc(Cl)cc1 (configuration not stated)
- mutagenic call (End Point: IN VITRO MICRONUCLEUS, Test System: CHL/IU CELLS, Metabolic Activation: NONE): active; positive

Compound: c1ccc2c(OC[C@@H]3CO3)cccc2c1
- mutagenic call [2]: active; positive

Compound: CC(C)(C)ON=O
- mutagenic call [1]: active; positive
- mutagenic call (Test System: AMES SALMONELLA TYPHIMURIUM, Strain/Indicator: TA100, Metabolic Activation: RAT, LIVER, S-9, AROCLOR, Method: PREINCUBATION): inactive; negative
- mutagenic call (Test System: AMES SALMONELLA TYPHIMURIUM, Strain/Indicator: TA102, Metabolic Activation: NONE, Method: PREINCUBATION): inactive; negative

Compound: O=[N+]([O-])c1ccc2ccc3c4c(cc5ccc1c2c53)[C@@H](O)[C@H](O)[C@@H]1O[C@H]41
- mutagenic call (Test System: CHINESE HAMSTER OVARY, Strain/Indicator: CHO-K1-BH4 (HGPRT)/6-THIOGUANINE, Metabolic Activation: NONE): active; positive
